Test results published in patent US10350271B2, “Lipidated peptides for lowering blood glucose” (USTAV ORGANICKE CHEMIE A BIOCHEMIE AKADEMIE VED CR, V.V.I., priority 2014, dated 2019).
Numbered stars: 1 amine (or outer) side, 2 acyl side, 3 side chain; on linkers, the order of the positions; unused ones are H or OH. Square brackets hold non-standard residues; d marks the D form. Side chains are listed from the residue outwards. Ends that are not written are not given here. Peptide text beside a SMILES is read from it. * marks the point of attachment. TTDA(Palmitoyl) = CCCCCCCCCCCCCCCC(=O)NCCCOCCOCCOCCCN*; Phe(3,4-Cl2) = N[C@@H](Cc1ccc(Cl)c(Cl)c1)C(=O)O; Myristoyl = CCCCCCCCCCCCCC(=O)*; Suc = O=C(CCC(=O)[*:2])[*:1]; Lauroyl = CCCCCCCCCCCC(=O)*; Decanoyl = CCCCCCCCCC(=O)*; Nle = CCCC[C@H](N)C(=O)O

Key:
C57BL/6 mice = experiment: Food intake in fasted mice after SC injection; format: in vivo; conditions: for Food intake in mice % of saline-treated group: 5 mg/kg SC, 45 min after injection
Method in brief: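 Saline, PrRP or a lipidated analog was injected SC (1-10 mg/kg) after a 17 h fast with free water, animals housed singly.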

rat PrRP receptor = biological target: T1, rat PrRP receptor (Rattus norvegicus, UniProt Q64121); experiment: Competitive binding in RC-4B/C rat pituitary cells (125I-rat PrRP31); conditions: for Ki: displacement of 125I-rat PrRP31, read-out: Ki, RC-4B/C rat pituitary cells ^25I-rat PrRP31; for % of PrRP31, RC-4B/C rat pituitary cells: affinity relative to PrRP31
T1 construct: host or cells: RC-4B/C rat pituitary cell line
T1 sequence (Q64121 1-370): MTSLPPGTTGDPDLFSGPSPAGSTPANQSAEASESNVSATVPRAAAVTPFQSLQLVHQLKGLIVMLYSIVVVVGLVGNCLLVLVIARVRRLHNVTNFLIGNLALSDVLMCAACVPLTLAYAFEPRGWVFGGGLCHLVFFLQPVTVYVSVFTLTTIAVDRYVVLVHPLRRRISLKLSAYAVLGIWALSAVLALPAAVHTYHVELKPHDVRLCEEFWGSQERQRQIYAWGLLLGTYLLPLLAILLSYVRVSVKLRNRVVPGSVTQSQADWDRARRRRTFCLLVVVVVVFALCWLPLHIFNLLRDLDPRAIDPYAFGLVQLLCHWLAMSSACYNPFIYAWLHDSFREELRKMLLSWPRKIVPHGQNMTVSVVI
Method in brief: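 Displacement of rat 125I-PrRP31 ([…]) by test analogs, 10^−11–10^−4 mol·l^−1, on whole RC-4B/C cells, 60 min RT. Bound counts measured by γ-counter in duplicate, ≥3 repeats, analyzed by nonlinear one-site binding regression.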

[1] = biological target: T2, human PrRP receptor GPR10 (Homo sapiens, UniProt P49683); experiment: Competitive binding in CHO cells transfected with human GPR10 (human 125I-PrRP31); conditions: for Ki: CHO cells, human 125I-PrRP31, read-out: Ki, GPR10 human receptor transfected in CHO cells; for % of PrRP31, GPR10 human receptor transfected in CHO cells: affinity relative to PrRP31
T2 construct: host or cells: CHO cells
T2 sequence (P49683 1-370): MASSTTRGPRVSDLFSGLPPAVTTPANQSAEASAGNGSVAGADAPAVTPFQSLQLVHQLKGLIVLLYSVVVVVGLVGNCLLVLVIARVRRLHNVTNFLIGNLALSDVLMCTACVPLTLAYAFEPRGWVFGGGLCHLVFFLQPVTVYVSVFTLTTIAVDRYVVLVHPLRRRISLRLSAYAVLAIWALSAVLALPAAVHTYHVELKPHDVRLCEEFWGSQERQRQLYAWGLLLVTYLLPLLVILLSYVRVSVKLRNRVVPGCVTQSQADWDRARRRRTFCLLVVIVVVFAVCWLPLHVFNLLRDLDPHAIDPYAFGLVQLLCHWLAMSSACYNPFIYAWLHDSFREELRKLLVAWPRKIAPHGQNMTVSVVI
Method in brief: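 Values from one-site nonlinear regression of displacement curves: analogs (final 10^-11 to 10^-4 mol·l^-1) competed with 125I-PrRP31 (final 5×10^-11 mol·l^-1) on adherent human GPR10 CHO cells. Binding ran 1 h at room temperature, pH 7.4 buffer with NaCl, MgCl2, CaCl2, glucose, BSA; cell-bound radioactivity counted after NaOH lysis.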

Row | Compound | Food intake in mice % of saline-treated group (C57BL/6 mice) | Ki (rat PrRP receptor; RC-4B/C cells) | % of PrRP31, RC-4B/C rat pituitary cells (rat PrRP receptor) | Ki [1] | % of PrRP31, GPR10 human receptor transfected in CHO cells [1] | Effect on food intake in mice (C57BL/6 mice; SC) | Binding affinity (rat PrRP receptor; RC-4B/C cells, statements referring to Table 2) | Displacement of rat 125I-PrRP binding (rat PrRP receptor; RC-4B/C cells, rat PrRP receptor) | Displacement of human 125I-PrRP binding ([1]; human GPR10 receptor)
1 | CCCCCCCCCCCCCC(=O)N[C@@H](CO)C(=O)N[C@@H](CCCNC(=N)N)C(=O)N[C@@H](C)C(=O)N[C@@H](Cc1c[nH]cn1)C(=O)N[C@@H](CCC(N)=O)C(=O)N[C@@H](Cc1c[nH]cn1)C(=O)N[C@@H](CO)C(=O)N[C@@H](CCCC)C(=O)N[C@@H](CCC(=O)O)C(=O)N[C@H](C(=O)N[C@@H](CCCNC(=N)N)C(=O)N[C@H](C(=O)N1CCC[C@H]1C(=O)N[C@@H](CC(=O)O)C(=O)N[C@H](C(=O)N[C@@H](CC(N)=O)C(=O)N1CCC[C@H]1C(=O)N[C@@H](C)C(=O)N[C@@H](Cc1c[nH]c2ccccc12)C(=O)N[C@@H](Cc1ccc(O)cc1)C(=O)N[C@H](C(=O)NCC(=O)N[C@@H](CCCNC(=N)N)C(=O)NCC(=O)N[C@H](C(=O)N[C@@H](CCCNC(=N)N)C(=O)N1CCC[C@H]1C(=O)N[C@H](C(=O)NCC(=O)N[C@@H](CCCNC(=N)N)C(=O)N[C@@H](Cc1ccc(Cl)c(Cl)c1)C(N)=O)C(C)C)[C@@H](C)CC)[C@@H](C)O)[C@@H](C)CC)[C@@H](C)O)[C@@H](C)O [Analog 14] (Myristoyl-SRAHQHS[Nle]ETRTPDINPAWYTGRGIRPVGR[Phe(3,4-Cl2)]-NH2) | 13% | 1.79 ± 1.02 nM | 275% | 0.95 ± 0.33 nM | 409% | – | – | – | –
2 | CCCCCCCCCCCC(=O)N[C@@H](CO)C(=O)N[C@@H](CCCNC(=N)N)C(=O)N[C@@H](C)C(=O)N[C@@H](Cc1c[nH]cn1)C(=O)N[C@@H](CCC(N)=O)C(=O)N[C@@H](Cc1c[nH]cn1)C(=O)N[C@@H](CO)C(=O)N[C@@H](CCCC)C(=O)N[C@@H](CCC(=O)O)C(=O)N[C@H](C(=O)N[C@@H](CCCNC(=N)N)C(=O)N[C@H](C(=O)N1CCC[C@H]1C(=O)N[C@@H](CC(=O)O)C(=O)N[C@H](C(=O)N[C@@H](CC(N)=O)C(=O)N1CCC[C@H]1C(=O)N[C@@H](C)C(=O)N[C@@H](Cc1c[nH]c2ccccc12)C(=O)N[C@@H](Cc1ccc(O)cc1)C(=O)N[C@H](C(=O)NCC(=O)N[C@@H](CCCNC(=N)N)C(=O)NCC(=O)N[C@H](C(=O)N[C@@H](CCCNC(=N)N)C(=O)N1CCC[C@H]1C(=O)N[C@H](C(=O)NCC(=O)N[C@@H](CCCNC(=N)N)C(=O)N[C@@H](Cc1ccccc1)C(N)=O)C(C)C)[C@@H](C)CC)[C@@H](C)O)[C@@H](C)CC)[C@@H](C)O)[C@@H](C)O [Analog 6] (Lauroyl-SRAHQHS[Nle]ETRTPDINPAWYTGRGIRPVGRF-NH2) | 22% | – | 1264% | – | 327% | – | – | – | –
3 | CCCCCCCCCCCCCCCC(=O)NCCCOCCOCCOCCCNC(=O)CCC(=O)NCCCC[C@H](NC(=O)[C@@H](NC(=O)[C@H](CCC(=O)O)NC(=O)[C@H](CCSC)NC(=O)[C@H](CO)NC(=O)[C@H](Cc1c[nH]cn1)NC(=O)[C@H](CCCNC(=N)N)NC(=O)[C@H](Cc1c[nH]cn1)NC(=O)[C@@H](NC(=O)[C@H](CCC(=O)O)NC(=O)[C@@H](N)CO)[C@@H](C)O)[C@@H](C)CC)C(=O)N[C@H](C(=O)N1CCC[C@H]1C(=O)N[C@@H](CC(=O)O)C(=O)N[C@H](C(=O)N[C@@H](CC(N)=O)C(=O)N1CCC[C@H]1C(=O)N[C@@H](C)C(=O)N[C@@H](Cc1c[nH]c2ccccc12)C(=O)N[C@@H](Cc1ccc(O)cc1)C(=O)N[C@@H](C)C(=O)N[C@@H](CO)C(=O)N[C@@H](CCCNC(=N)N)C(=O)NCC(=O)N[C@H](C(=O)N[C@@H](CCCNC(=N)N)C(=O)N1CCC[C@H]1C(=O)N[C@H](C(=O)NCC(=O)N[C@@H](CCCNC(=N)N)C(=O)N[C@@H](Cc1ccccc1)C(N)=O)C(C)C)[C@@H](C)CC)[C@@H](C)CC)[C@@H](C)O [Analog 58] (H-SETHRHSMEIK([Suc-TTDA(Palmitoyl)])TPDINPAWYASRGIRPVGRF-NH2; N-terminus assumed) | 7% | – | 575% | – | 103% | – | – | – | –
4 | SRAHQHSMETRTPDINPAWYTGRGIRPVGRF-NH2 [Rat PrRP31, reference compound] | 100% | – | 100% | – | 100% | – | – | – | –
5 | CC[C@H](C)[C@H](NC(=O)[C@H](CCCNC(=N)N)NC(=O)[C@@H]1CCCN1C(=O)[C@@H](NC(=O)CNC(=O)[C@@H](CCCNC(=N)N)NC(=O)[C@H](N)Cc1ccccc1)C(C)C)C(=O)NCC(=O)N[C@@H](CCCNC(=N)N)C(=O)NCC(=O)N[C@H](C(=O)N[C@@H](Cc1ccc(O)cc1)C(=O)N[C@@H](Cc1c[nH]c2ccccc12)C(=O)N[C@@H](C)C(=O)N1CCC[C@H]1C(=O)N[C@@H](CC(N)=O)C(=O)N[C@H](C(=O)N[C@@H](CC(=O)O)C(=O)N1CCC[C@H]1C(=O)N[C@H](C(N)=O)[C@@H](C)O)[C@@H](C)CC)[C@@H](C)O [Analog 25] (H-[dF][dR]GVPRIGRGTYWAPNIDPT-NH2) | – | – | 0.09% | – | 0.06% | no effect | very low binding affinity | – | –
6 | CCCCCCCCCC(=O)N[C@@H](CO)C(=O)N[C@@H](CCCNC(=N)N)C(=O)N[C@@H](C)C(=O)N[C@@H](Cc1c[nH]cn1)C(=O)N[C@@H](CCC(N)=O)C(=O)N[C@@H](Cc1c[nH]cn1)C(=O)N[C@@H](CO)C(=O)N[C@@H](CCCC)C(=O)N[C@@H](CCC(=O)O)C(=O)N[C@H](C(=O)N[C@@H](CCCNC(=N)N)C(=O)N[C@H](C(=O)N1CCC[C@H]1C(=O)N[C@@H](CC(=O)O)C(=O)N[C@H](C(=O)N[C@@H](CC(N)=O)C(=O)N1CCC[C@H]1C(=O)N[C@@H](C)C(=O)N[C@@H](Cc1c[nH]c2ccccc12)C(=O)N[C@@H](Cc1ccc(O)cc1)C(=O)N[C@H](C(=O)NCC(=O)N[C@@H](CCCNC(=N)N)C(=O)NCC(=O)N[C@H](C(=O)N[C@@H](CCCNC(=N)N)C(=O)N1CCC[C@H]1C(=O)N[C@H](C(=O)NCC(=O)N[C@@H](CCCNC(=N)N)C(=O)N[C@@H](Cc1ccccc1)C(N)=O)C(C)C)[C@@H](C)CC)[C@@H](C)O)[C@@H](C)CC)[C@@H](C)O)[C@@H](C)O [Analog 5] (Decanoyl-SRAHQHS[Nle]ETRTPDINPAWYTGRGIRPVGRF-NH2) | 57% | – | 758% | – | 266% | – | – | – | –
7 | CCCCCCCCCC(=O)N[C@H](C(=O)N1CCC[C@H]1C(=O)N[C@@H](CC(=O)O)C(=O)N[C@H](C(=O)N[C@@H](CC(N)=O)C(=O)N1CCC[C@H]1C(=O)N[C@@H](C)C(=O)N[C@@H](Cc1c[nH]c2ccccc12)C(=O)N[C@@H](Cc1ccc(O)cc1)C(=O)N[C@@H](C)C(=O)N[C@@H](CO)C(=O)N[C@@H](CCCNC(=N)N)C(=O)NCC(=O)N[C@H](C(=O)N[C@@H](CCCNC(=N)N)C(=O)N1CCC[C@H]1C(=O)N[C@H](C(=O)NCC(=O)N[C@@H](CCCNC(=N)N)C(=O)N[C@@H](Cc1ccccc1)C(N)=O)C(C)C)[C@@H](C)CC)[C@@H](C)CC)[C@@H](C)O [Analog 40] (Decanoyl-TPDINPAWYASRGIRPVGRF-NH2) | 100% | 0.41 ± 0.01 nM | 1202% | 3.02 ± 0.49 nM | 129% | – | – | nmol·l^−1 range | nmol·l^−1 range
